Usually IC50 stands for the concentration that gives 50% inhibition.

The subject of assay [1] is α-MyHC protein. The experiment in a line: α-MyHC protein levels in NRVM by Western blotting. The class given is cell-based, rat. The following applies: NRVM stimulated 3 days; Compound 1 10 nM to 10 μM. How it is done: FIG. 2 Effect of Compound 1 on α-MyHC protein levels as detected by Western blotting. NRVM are stimulated with Compound 1 at different concentrations for 3 days. Protein extracts are prepared, proteins are separated by SDS-PAGE electrophoresis, transferred to PVDF membrane, and detected with an anti-α-MyHC monoclonal antibody.
As an independent measure of changes in α-MyHC protein levels, NRVM stimulated with Compound 1 were analyzed for α-MyHC protein levels by Western blotting. Protein extracts prepared from NRVM stimulated with a range of concentrations of Compound 1 from 10 nM to 10 μM were separated by SDS-PAGE and transferred to PVDF membrane. Levels of α-MyHC protein were detected by Western blotting using the same anti-α-MyHC monoclonal antibody used in the cytoblot assay. […] This experiment verified that the changes in α-MyHC protein detected in the cytoblot assay were also evident by Western blotting.
For orientation: Immunoblotting shows a protein as a band on a membrane.

The test system of assay [2] is α-MyHC protein levels. The experiment in a line: α-MyHC cytoblot assay in neonatal rat ventricular myocytes (NRVM). Particulars: NRVM, 3 days. The class given is cell-based. The method, then: FIG. 1 Concentration-dependent effect of Compound 1 on α-MyHC protein levels in the cytoblot assay. NRVM are cultured for 3 days in serum-free medium in the presence of differing amounts of Compound 1. At the end of the culture period, NRVM are fixed and analyzed for α-MyHC protein levels using the BA-G5 monoclonal antibody specific for α-MyHC. Results are collected as RLU using a Packard Fusion Plate reader, and normalized to the signal from samples cultured in the absence of compound (control, set to 100%).
Preparation and culture of neonatal rat ventricular myocytes (NRVM) was performed by removing hearts from 1-3 day old rat neonatal pups, along with the atria and lungs. The ventricles were cut into smaller pieces and digested 3 times with collagenase for 20-30 min at 37° C. The myocytes were then separated from other cell types using a Percoll gradient. The myocyte layer was collected, washed 2 times, and plated on tissue culture grade 10 cm Petri dishes for 1-2 hrs. The non-adherent cells (myocytes) were removed and plated in Costar clear view 96 well plates coated with 0.2% gelatin for at least 2 hrs. The gelatin solution was removed, and the myocytes were resuspended in DMEM high glucose media (Mediatech) containing 10% charcoal/dextran treated FBS (Hyclone) and 1% Penicillin-Streptomycin-Glutamine (PSG, Gibco). Ten thousand NRVM were plated per well in a 100 μl volume, and incubated overnight at 37° C. in 5% CO2 in air. The following day, the media was replaced with 100 μl of serum-free DMEM high glucose medium supplemented with PSG and 0.3% Nutridoma-SP (Roche).
Compounds were reconstituted in DMSO at 30 mM, and aliquots were stored at −20° C. A 1:1000 dilution was prepared in serum-free DMEM medium supplemented with PSG and 0.3% Nutridoma, and sonicated for 5 min at room temperature. After sonication, additional 3 fold dilutions were prepared in the same medium. Diluted compound was then added to the NRVM cultures in a volume of 100 μl. A 100 mM thyroid hormone stock solution (T3, Calbiochem) was prepared in 100 mM NaOH and added at a final concentration of 3 nM in DMEM medium supplemented with PSG and 0.3% Nutridoma-SP (Roche). NRVM were cultured for 3 days before detection of α-myosin heavy chain (α-MyHC) protein levels in the cytoblot assay.
For the α-MyHC cytoblot assay, NRVM cultures were analyzed for α-MyHC protein levels after 3 days of incubation. NRVM were washed 2 times with PBS, fixed with methanol for 30 min at 4° C., and washed an additional 2 times with PBS. Blocking solution consisting of PBS with 1% bovine serum albumin (BSA, Fisher Biotech) was added for 1 hr at room temperature before addition of a saturating amount of supernatant containing an α-MyHC specific antibody for 60 min at room temperature (BA-G5 hybridoma, ATTC). Two washes were performed with PBS/1% BSA, and a 1:500 dilution of HRP-goat anti-mouse IgG (Southern Biotech) diluted in PBS/1% BSA was added for 60 min at room temperature. Excess antibody was removed with 3 PBS washes, and a chemiluminescent substrate was added (Pierce SuperSignal West Pico Chemiluminscent Substrate) for 5 min before quantitation on a Packard Fusion Plate Reader.
As shown above in Table 1, Compound 1 increased α-MyHC protein levels as determined by an α-MyHC cytoblot assay. Compound 1 was added to NRVM at concentration ranging from 3 nM to 30 μM. After 3 days of incubation with NRVM, α-MyHC protein levels were detected in the cytoblot assay and quantitated (FIG. 1). […] An increase in α-MyHC protein levels was first detected beginning at 30 nM, with a maximal response observed at 3 μM. In six independent experiments, the concentration of Compound 1 that gave a half-maximal response was on average 60 nM.

The test system of assay [3] is secretion of atrial natriuretic factor. The experiment in a line: Anti-hypertrophic activity in NRVM, ANF ELISA (ANF secretion). The class given is cell-based, rat. The following applies: Rattus norvegicus, read-out: IC50 of the ANF ELISA (antihypertrophic activity). How it is done: Anti-hypertrophic Activity of Racemic Compound 1 and Purified Enantiomers of Compound 1. Neonatal rat ventricular myocytes (NRVM) were isolated from 1 to 3 day-old Sprague-Dawley rats using enzymatic digestion and myocyte enrichment techniques. NRVM were cultured in serum-containing media for 18 hours. For the continuation of culture, serum-free media was used. Hypertrophy of NRVM was induced using pharmacological stimuli, including phenylephrine, endothelin-1, and […]. Hypertrophic responses were determined using methods including the following: measurement of total cellular protein; secretion of atrial natriuretic factor; determination of cell volume; determination of the expression of so-called fetal genes such as atrial natriuretic factor, beta-myosin heavy chain and alpha-skeletal actin. ANF secretion was the most sensitive assay for measuring hypertrophy, and the IC50 of the ANF ELISA was the measurement used to determine antihypertrophic activity.
(In general: ELISA stands for enzyme-linked immunosorbent assay.)

As for `CC(=O)C1=C(C)NC(SCC(=O)c2cccc([N+](=O)[O-])c2)=C(C#N)C1c1ccccc1Cl` (racemic) [Compound 1], the “α-MyHC protein levels by Western blotting” value in assay [1] was “increasing amounts of α-MyHC protein were observed with increasing amounts of Compound 1”. In addition, the “% increase of a-MyHC over baseline at 10 mM Cpd” value in assay [2] (10 mM Cpd) came to 206%. In addition, in assay [2] (tested 3 nM to 30 μM), the “concentration at which an increase in α-MyHC protein levels was first detected” value worked out at 30 nM and the “concentration at which maximal response was observed” value turned out to be 3 µM. The EC50 in assay [2] (Rattus norvegicus, Ventricular myocyte, 72 h, average of six independent experiments, read-out: concentration that gave a half-maximal response (α-MyHC protein levels)) was 60 nM. Also, the IC50 in assay [3] came out at 427 nM.

The values are drawn from patent publication US20050124634A1, “1,4-dihydropyridine compounds, pharmaceutical compositions, and methods for the treatment of cardiovascular disease” (MYOGEN, INC., priority 2003, published 2005).
